Data on 47 molecules can be found in patent US20240116946A1 (Gilead Sciences, Inc., priority 2022, published 2024).

The test system of one assay is SARS-CoV-2-NLuc. Nature of the assay: microbe, parasite or virus in culture. Format: cell-based, SARS Coronavirus 2. Conditions: Severe acute respiratory syndrome coronavirus, 48 h, read-out: MPro EC50.
Assay [1] deals with recombinant SARS-CoV-2 Main protease (Mpro) (Severe acute respiratory syndrome coronavirus 2 (2019-nCoV) (SARS-CoV-2), UniProt P0DTD1). Put plainly: Cov Mpro Biochemical IC50 Assay. The note with it: recombinant SARS-CoV-2 Mpro, fluorogenic peptide substrate; read-out: MPro IC50.

pEC50, pIC50: −log10 of the molar value.

On to `NC(=O)c1cccc(-c2cccc(Cl)c2-c2ccc3c(=O)n(-c4cncc5ccccc45)c(=O)[nH]c3c2)c1` [Example 242], for which the pEC50 in the assay on SARS-CoV-2-NLuc was 7.40. Besides, in assay [1], the pIC50 is 7.98.

In the case of `Cc1c(-c2cccc(Cl)c2-c2ccc3c(=O)n(-c4cncc5ccccc45)c(=O)[nH]c3c2)cnn1C` [Example 243], in the assay with SARS-CoV-2-NLuc, the pEC50 is 7.91. Besides, the pIC50 in assay [1] was 7.96.

With `Cc1cc(-c2cccc(Cl)c2-c2ccc3c(=O)n(-c4cncc5ccccc45)c(=O)[nH]c3c2)ccc1C(N)=O` [Example 244], in the assay with SARS-CoV-2-NLuc, the pEC50 is 7.39. Besides, in assay [1], the pIC50 is 7.74.

As for `Cc1cc(-c2cccc(Cl)c2-c2ccc3c(=O)n(-c4cncc5ccccc45)c(=O)[nH]c3c2)cn2nnnc12` [Example 245], the pEC50 in the assay on SARS-CoV-2-NLuc is 7.69. Also, in assay [1], the pIC50 was 7.88.

In the case of `O=c1[nH]c2cc(-c3c(Cl)cccc3-c3cc4n(n3)CCC4)ccc2c(=O)n1-c1cncc2ccccc12` [Example 246], the pEC50 in the assay on SARS-CoV-2-NLuc was 7.73. Also, the pIC50 in assay [1] was 7.68.

Turning to `Cn1cc2cc(-c3cccc(Cl)c3-c3ccc4c(=O)n(-c5cncc6ccccc56)c(=O)[nH]c4c3)ccc2n1` [Example 247], in the assay on SARS-CoV-2-NLuc, the pEC50 is 7.52. Moreover, the pIC50 in assay [1] was 7.20.

Consider `Cn1cc2ccc(-c3cccc(Cl)c3-c3ccc4c(=O)n(-c5cncc6ccccc56)c(=O)[nH]c4c3)cc2n1` [Example 248], for which the pEC50 with SARS-CoV-2-NLuc was 7.40. Moreover, the pIC50 in assay [1] is 7.06.

Regarding `CCCOc1ccc(Cl)c(-c2ccc3c(=O)n(-c4cncc5ccccc45)c(=O)[nH]c3c2)c1` [Example 249], the pEC50 with SARS-CoV-2-NLuc was 6.96. For the same molecule, in assay [1], the pIC50 was 6.57.

As to `COc1cc(-c2ccc3c(=O)n(-c4cncc5ccccc45)c(=O)[nH]c3c2)c(Cl)cc1C` [Example 250], the pEC50 in the assay on SARS-CoV-2-NLuc is 6.34. For the same molecule, in assay [1], the pIC50 was 5.92.

As to `COCCOc1ccc(Cl)c(-c2ccc3c(=O)n(-c4cncc5ccccc45)c(=O)[nH]c3c2)c1` [Example 251], the pEC50 in the assay on SARS-CoV-2-NLuc is 6.82. Further, the pIC50 in assay [1] was 7.17.

Turning to `Cc1ccc(Cl)c(-c2ccc3c(=O)n(-c4cncc5ccccc45)c(=O)[nH]c3c2)c1` [Example 252], the pEC50 with SARS-CoV-2-NLuc is 6.49. Further, in assay [1], the pIC50 is 6.82.

Regarding `COc1cc(-c2ccc3c(=O)n(-c4cncc5ccccc45)c(=O)[nH]c3c2)c(Cl)cn1` [Example 253], the pEC50 in the assay with SARS-CoV-2-NLuc was 5.92. Besides, the pIC50 in assay [1] is 6.34.

Regarding `COc1ccc(F)c(-c2ccc3c(=O)n(-c4cncc5ccccc45)c(=O)[nH]c3c2)c1` [Example 254], the pEC50 in the assay on SARS-CoV-2-NLuc is 6.56. The pIC50 in assay [1] is 6.97.

Consider `COc1cc(Cl)c(-c2ccc3c(=O)n(-c4cncc5ccccc45)c(=O)[nH]c3c2)cc1OC` [Example 255], for which the pEC50 in the assay with SARS-CoV-2-NLuc is 6.48. Moreover, the pIC50 in assay [1] is 6.51.

For `CC(C)COc1ccc(Cl)c(-c2ccc3c(=O)n(-c4cncc5ccccc45)c(=O)[nH]c3c2)c1` [Example 256], the pEC50 with SARS-CoV-2-NLuc was 6.16. Also, in assay [1], the negative-log IC50 (pIC50) was 5.40.

Turning to `COc1cnc(Cl)c(-c2ccc3c(=O)n(-c4cncc5ccccc45)c(=O)[nH]c3c2)c1` [Example 257], in the assay with SARS-CoV-2-NLuc, the pEC50 was 5.94. Also, the pIC50 in assay [1] was 6.30.

With `Cc1cn(C)nc1-c1cccc(Cl)c1-c1ccc2c(=O)n(-c3cncc4ccccc34)c(=O)[nH]c2c1` [Example 258], the pEC50 with SARS-CoV-2-NLuc was 7.12. Besides, in assay [1], the pIC50 is 7.21.

In the case of `Cc1nocc1-c1cccc(Cl)c1-c1ccc2c(=O)n(-c3cncc4ccccc34)c(=O)[nH]c2c1` [Example 259], the pEC50 in the assay with SARS-CoV-2-NLuc is 6.95. In addition, the pIC50 in assay [1] is 6.72.

For the molecule `NC(=O)c1cc(-c2cccc(Cl)c2-c2ccc3c(=O)n(-c4cncc5ccccc45)c(=O)[nH]c3c2)ccc1F` [Example 260], in the assay on SARS-CoV-2-NLuc, the pEC50 is 7.99. The pIC50 in assay [1] is 7.82.

As to `Cc1n[nH]cc1-c1cccc(Cl)c1-c1ccc2c(=O)n(-c3cncc4ccccc34)c(=O)[nH]c2c1` [Example 261], in the assay with SARS-CoV-2-NLuc, the negative logarithm of the EC50 (pEC50) was 7.01. Besides, in assay [1], the pIC50 was 7.10.

Take `Cn1cc(-c2cccc(Cl)c2-c2ccc3c(=O)n(-c4cncc5ccccc45)c(=O)[nH]c3c2)c(C2CC2)n1` [Example 262]: the pEC50 in the assay on SARS-CoV-2-NLuc was over 8.36. The pIC50 in assay [1] is 8.21.

In the case of `Cn1nc(-c2cccc(Cl)c2-c2ccc3c(=O)n(-c4cncc5ccccc45)c(=O)[nH]c3c2)c2ccccc21` [Example 263], the pEC50 with SARS-CoV-2-NLuc is 7.42. Also, in assay [1], the pIC50 is 7.05.

`NC(=O)c1cc(-c2cccc(Cl)c2-c2ccc3c(=O)n(-c4cncc5ccccc45)c(=O)[nH]c3c2)ccc1Cl` [Example 264]: the negative logarithm of the EC50 (pEC50) with SARS-CoV-2-NLuc is 7.52. Further, the pIC50 in assay [1] was 7.95.

In the case of `Cn1cc(-c2cccc(Cl)c2-c2ccc3c(=O)n(-c4cncc5ccccc45)c(=O)[nH]c3c2)c(C(F)(F)F)n1` [Example 265], in the assay on SARS-CoV-2-NLuc, the pEC50 is 7.76. Moreover, the pIC50 in assay [1] is 7.59.

As to `Cc1nn(C2CCN(C(=O)OC(C)(C)C)CC2)cc1-c1cccc(Cl)c1-c1ccc2c(=O)n(-c3cncc4ccccc34)c(=O)[nH]c2c1` [Example 266, tert-butyl 4-[4-[3-chloro-2-[3-(4-isoquinolyl)-2,4-dioxo-1H-quinazolin-7-yl]phenyl]-3-methyl-pyrazol-1-yl]piperidine-1-carboxylate], the pEC50 in the assay with SARS-CoV-2-NLuc is 7.02. In addition, the pIC50 in assay [1] is 7.44.

Take `Cn1cc(-c2cccc(Cl)c2-c2ccc3c(=O)n(-c4cncc5ccccc45)c(=O)[nH]c3c2)c(C#N)n1` [Example 267]: in the assay with SARS-CoV-2-NLuc, the pEC50 was 7.45. For the same molecule, the pIC50 in assay [1] was 7.62.

Consider `Cc1c(-c2cccc(Cl)c2-c2ccc3c(=O)n(-c4cncc5ccccc45)c(=O)[nH]c3c2)cnn1C1CCN(C(=O)OC(C)(C)C)CC1` [Example 268], for which the pEC50 with SARS-CoV-2-NLuc was 7.37. The pIC50 in assay [1] was 6.88.

Take `CS(=O)(=O)c1cccc(-c2cccc(Cl)c2-c2ccc3c(=O)n(-c4cncc5ccccc45)c(=O)[nH]c3c2)c1` [Example 269]: the pEC50 with SARS-CoV-2-NLuc is over 8.28. Also, the pIC50 in assay [1] was 7.97.

For the molecule `NS(=O)(=O)c1cccc(-c2cccc(Cl)c2-c2ccc3c(=O)n(-c4cncc5ccccc45)c(=O)[nH]c3c2)c1` [Example 270], the pEC50 in the assay on SARS-CoV-2-NLuc was 7.07. In assay [1], the pIC50 was 7.86.

As for `CC(C)(C)OC(=O)N1CCn2ncc(-c3cccc(Cl)c3-c3ccc4c(=O)n(-c5cncc6ccccc56)c(=O)[nH]c4c3)c2C1` [Example 271], the pEC50 in the assay on SARS-CoV-2-NLuc is 6.68. In assay [1], the pIC50 is 6.81.

With `Cn1ncc(-c2cccc(Cl)c2-c2ccc3c(=O)n(-c4cncc5ccccc45)c(=O)[nH]c3c2)c1C(F)(F)F` [Example 272], in the assay on SARS-CoV-2-NLuc, the pEC50 was 7.40. Also, in assay [1], the pIC50 is 6.67.

As to `COc1nn(C)cc1-c1cccc(Cl)c1-c1ccc2c(=O)n(-c3cncc4ccccc34)c(=O)[nH]c2c1` [Example 273], the pEC50 in the assay on SARS-CoV-2-NLuc was 8.19. The pIC50 in assay [1] is 7.83.

`Cc1nn(C(C)(C)C)cc1-c1cccc(Cl)c1-c1ccc2c(=O)n(-c3cncc4ccccc34)c(=O)[nH]c2c1` [Example 274]: the pEC50 in the assay on SARS-CoV-2-NLuc is 7.02. The pIC50 in assay [1] is 7.08.

On to `CCn1cc(-c2cccc(Cl)c2-c2ccc3c(=O)n(-c4cncc5ccccc45)c(=O)[nH]c3c2)c(C)n1` [Example 275], for which the pEC50 in the assay on SARS-CoV-2-NLuc is 7.75. In addition, the pIC50 in assay [1] was 7.63.

For the molecule `N#Cc1cccc(-c2cccc(Cl)c2-c2ccc3c(=O)n(-c4cncc5ccccc45)c(=O)[nH]c3c2)n1` [Example 276], the pEC50 in the assay with SARS-CoV-2-NLuc is 6.66. Moreover, the pIC50 in assay [1] is 6.64.

`N#Cc1cc(-c2cccc(Cl)c2-c2ccc3c(=O)n(-c4cncc5ccccc45)c(=O)[nH]c3c2)cnc1N1CCOCC1` [Example 277]: the pEC50 in the assay on SARS-CoV-2-NLuc was 7.24. The pIC50 in assay [1] is 6.91.

Take `O=c1[nH]c2cc(-c3c(Cl)cccc3-c3cncc(N4CCOCC4)c3)ccc2c(=O)n1-c1cncc2ccccc12` [Example 279]: the pEC50 with SARS-CoV-2-NLuc was 8.12. In addition, the pIC50 in assay [1] is 8.28.

Turning to `Cn1cc(-c2cccc(Cl)c2-c2cc3[nH]c(=O)n(-c4cncc5ccccc45)c(=O)c3s2)c(C(F)(F)F)n1` [Example 280, 6-(2-chloro-6-(1-methyl-3-(trifluoromethyl)-1H-pyrazol-4-yl)phenyl)-3-(isoquinolin-4-yl)thieno[3,2-d]pyrimidine-2,4(1H,3H)-dione], the pEC50 in the assay with SARS-CoV-2-NLuc was 7.80. The pIC50 in assay [1] was 8.22.

As for `CCn1cc(-c2cccc(Cl)c2-c2ccc3c(=O)n(-c4cncc5ccccc45)c(=O)[nH]c3c2)c(C(F)(F)F)n1` [Example 281], the pEC50 in the assay on SARS-CoV-2-NLuc is 7.40. In assay [1], the pIC50 was 7.14.

For the molecule `CC(C)n1cc(-c2cccc(Cl)c2-c2ccc3c(=O)n(-c4cncc5ccccc45)c(=O)[nH]c3c2)c(C(F)(F)F)n1` [Example 282], the pEC50 in the assay with SARS-CoV-2-NLuc was 7.14. In addition, the pIC50 in assay [1] is 6.83.

For `COc1ccc(-n2cc(-c3cccc(Cl)c3-c3ccc4c(=O)n(-c5cncc6ccccc56)c(=O)[nH]c4c3)c(C)n2)cc1` [Example 283], in the assay with SARS-CoV-2-NLuc, the pEC50 is 7.02. The negative-log IC50 (pIC50) in assay [1] was 6.62.

With `CCS(=O)(=O)c1cccc(-c2cccc(Cl)c2-c2ccc3c(=O)n(-c4cncc5ccccc45)c(=O)[nH]c3c2)c1` [Example 284], the pEC50 with SARS-CoV-2-NLuc was 7.45. Further, the pIC50 in assay [1] is 7.59.

Consider `Cc1nn(CC(F)(F)F)cc1-c1cccc(Cl)c1-c1ccc2c(=O)n(-c3cncc4ccccc34)c(=O)[nH]c2c1` [Example 285], for which the pEC50 in the assay on SARS-CoV-2-NLuc is 7.59. The negative-log IC50 (pIC50) in assay [1] was 7.72.

For `O=c1[nH]c2cc(-c3cc(F)c(F)cc3Cl)sc2c(=O)n1-c1cncc2ccccc12` [Example 286], in the assay on SARS-CoV-2-NLuc, the pEC50 is 7.22. The pIC50 in assay [1] was 7.46.

In the case of `Cc1cc(Cl)ncc1-c1cc2[nH]c(=O)n(-c3cncc4ccccc34)c(=O)c2s1` [Example 287], the pEC50 in the assay with SARS-CoV-2-NLuc is under 6.04. The pIC50 in assay [1] is 6.65.

For the molecule `Cc1nc(Cl)ccc1-c1cc2[nH]c(=O)n(-c3cncc4ccccc34)c(=O)c2s1` [Example 288], the pEC50 in the assay on SARS-CoV-2-NLuc is 5.98. In assay [1], the pIC50 is 6.64.

As to `Cc1ccc(-c2cc3[nH]c(=O)n(-c4cncc5ccccc45)c(=O)c3s2)c(Cl)n1` [Example 289], the pEC50 in the assay with SARS-CoV-2-NLuc was 6.92. The pIC50 in assay [1] was 7.38.
